Tests used:
PCSK9 protein = PCSK9 protein (Homo sapiens (Human), UniProt Q8NBP7); experiment: Binding experiment: surface plasmon resonance (SPR) binding to PCSK9 protein
Source text: • 1. Experimental objective: To detect the action of compounds to bind PCSK9 protein by a conventional surface plasmon resonance (SPR) method.

[1] = molecular target: PCSK9 secreted by HepG2 cells (Homo sapiens (Human), UniProt Q8NBP7); experiment: Effect on the concentration of PCSK9 secreted by HepG2 cells (ELISA); assay type: cell-based; conditions: 48 hours incubation, read-out: Inhibitory activity on PCSK9, IC50
Source text: • 1. Experimental objective: To detect the inhibitory effect of the compounds on PCSK9. • 2. Experimental instruments and reagents: • 2.1 Instruments:
• CircuLex Human PCSK9 ELISA kit (MBL: CY-8079); • DMEM (Gibco: 31966-021) • FBS (Sigma: S5394) • Compound plate (Thermo: 1353506) • Complete culture medium: DMEM+10% FBS+1×P/S; • Experimental culture medium: DMEM+10% FBS • Cell strain: HepG2 (ATCC: HB-8065)
A self-adhesive seal was applied, the plate was placed on a plate shaker at room temperature, gently shaken, uniformly mixed, and incubated for 1 hour. • 11) The plate was placed on the plate washer, the washing liquid was set to 350 μL per well, and the plate was washed 4 times repeatedly. • 12) 100 μL/well of an HRP-conjugated detection antibody was added, a self-adhesive seal was applied, and the plate was placed on the plate shaker, well mixed uniformly, and incubated for 1 hour. • 13) The plate was placed on the plate washer, the washing liquid was set to 350 μL per well, and the plate was washed 4 times repeatedly. • 14) 100 μL/well of Substrate reagent was added, and the plate was placed in the dark, applied with a self-adhesive seal, placed on the plate shaker, well mixed uniformly, and incubated for 10-20 minutes. • 15) 100 μL/well of Stop solution (1N H2SO4) was added and mixed uniformly. • 16) The optical density (OD) value in each well was measured in sequence at a wavelength of 450 nm by the microplate reader. Detection was carried out within 30 min after the reaction was stopped.
After the OD values were read by the microplate reader, the OD value of the 0-concentration standard in the standard group was subtracted from the OD values of the standards, control group, and samples to obtain the actual OD values for these wells. A standard curve was plotted with Graphpad and the concentration of the sample was calculated. If the dilution was performed during the sample detection, the calculated sample concentration was necessarily multiplied by the corresponding dilution ratio in the final calculation, which was the actual concentration of the sample. Inhibition rate=(actual concentration in control-actual concentration in sample)/actual concentration in control*100. According to the inhibition rates corresponding to the different concentrations, IC50 was derived by Graphpad.

[2] = Pharmacokinetic determination in mice (plasma); assay type: in vivo, C57BL/6J mice; conditions: C57 mice, PO administration, 5 mpk; for AUC(0-inf) / half-life / MRT / Cmax: male, C57BL/6J, mouse, 5 mg/kg; for AUC(0-inf): read-out: Area under the curve AUC0-∞; for half-life: read-out: Half-life t1/2 (converted); for MRT: read-out: Mean residence time MRT; for Cmax: read-out: Plasma concentration Cmax
Procedure: C57BL/6J mice were used as test animals to study the pharmacokinetic behavior of the compounds of the present disclosure in mice (plasma) after oral and intravenous administration.
C57 mice, male, purchased from Shanghai Bk Lab Animal Co., Ltd., with animal production license number (SCXK (Shanghai) 2013-0006 NO.311620400001794).
• Preparation of oral drug: 10% Solutol HS15
10 g of Solutol HS15 solid was weighed, dissolved in 90 mL of pure water, uniformly mixed, stirred, and ultrasonically treated to form a clear solution.
The compound of the present disclosure was weighed and dissolved in this solution, uniformly shaken, and ultrasonically treated for 15 minutes to obtain a colorless clear solution with a concentration of 0.5 mg/mL. • Preparation of intravenous drug: 5% DMSO+10% Solutol HS15+85% PBS […]
3 male C57 mice were fasted overnight and then respectively administered PO at a dose of 5 mg/kg and a volume of 10 mL/kg. […]
Before and after administration of mice, 0.04 mL of blood was collected from the orbit at 0.083 (iv), 0.25, 0.5, 1, 2, 4, 8, and 24 hours, and placed in EDTA-K2 test tubes, which was centrifuged at 6000 rpm at 4° C. for 6 min to separate plasma which was stored at −80° C.; and the […] were fed 4 h after administration.
The final determination results were obtained by using an LCMS/MS method.
The main pharmacokinetic parameters were calculated using WinNonlin 6.1.

Chain of PCSK9 secreted by HepG2 cells (Q8NBP7 153-692): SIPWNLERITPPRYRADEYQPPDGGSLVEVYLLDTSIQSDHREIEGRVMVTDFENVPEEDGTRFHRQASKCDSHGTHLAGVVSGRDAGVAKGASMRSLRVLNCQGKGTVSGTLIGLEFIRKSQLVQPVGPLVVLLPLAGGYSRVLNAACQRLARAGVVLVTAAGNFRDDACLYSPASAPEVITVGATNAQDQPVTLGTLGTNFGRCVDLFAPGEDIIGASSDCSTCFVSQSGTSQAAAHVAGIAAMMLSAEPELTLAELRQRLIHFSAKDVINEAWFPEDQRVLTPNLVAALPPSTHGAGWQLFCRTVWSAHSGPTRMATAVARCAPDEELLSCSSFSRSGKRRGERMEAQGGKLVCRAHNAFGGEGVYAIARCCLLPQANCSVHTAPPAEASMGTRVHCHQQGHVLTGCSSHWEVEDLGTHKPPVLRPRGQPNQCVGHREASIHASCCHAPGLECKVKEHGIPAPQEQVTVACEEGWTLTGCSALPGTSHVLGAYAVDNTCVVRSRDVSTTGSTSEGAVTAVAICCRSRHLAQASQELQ
Chain of PCSK9 secreted by HepG2 cells (Q8NBP7 31-152 partner): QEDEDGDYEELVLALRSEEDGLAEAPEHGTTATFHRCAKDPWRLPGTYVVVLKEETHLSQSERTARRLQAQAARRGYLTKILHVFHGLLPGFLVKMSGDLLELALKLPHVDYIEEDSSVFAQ
Chain of PCSK9 protein (Q8NBP7 153-692): as the sequence (Q8NBP7 153-692) above

| SMILES | Kd (PCSK9 protein) | IC50 [1] | Time to peak tmax [2] | also measured |
| --- | --- | --- | --- | --- |
| O=c1ccccn1-c1ccc(N[C@H]2CC[C@H](Nc3nc4cc(Cl)ccn4n3)C2)nc1 [Example 112, 6′-(((1S,3S)-3-((7-chloro-[1,2,4]triazolo[1,5-a]pyridin-2-yl)amino)cyclopentyl)amino)-2H-[1,3′-bipyridinyl]-2-one] | 2.7 nM | – | – | – |
| Cc1ccn2nc(N[C@H]3CC[C@H](Nc4ccc(N5Cc6cccnc6C5=O)cn4)C3)nc2c1 [Example 130, 6-(6-(((1S,3S)-3-((7-methyl-[1,2,4]triazolo[1,5-a]pyridin-2-yl)amino)cyclopentyl)amino)pyridin-3-yl)-5,6-dihydro-7H-pyrrolo[3,4-b]pyridin-7-one] | 1.2 nM | 9900 nM | – | – |
| CC1(C)c2cccnc2C(=O)N1c1ccc(N[C@H]2CC[C@H](Nc3ncc(OC(F)F)cn3)C2)nc1 [Example 93, 6-(6-(((1S,3S)-3-((5-(difluoromethoxy)pyrimidin-2-yl)amino)cyclopentyl)amino)pyridin-3-yl)-5,5-dimethyl-5,6-dihydro-7H-pyrrolo[3,4-b]pyridin-7-one] | 2.9 nM | – | – | – |
| O=C1c2ncccc2CN1c1ccc(N[C@H]2CC[C@H](Nc3ncc(C4CC4)cn3)C2)nc1 [Example 127] | 1.8 nM | 11800 nM | – | – |
| O=C1c2cccnc2CN1c1ccc(N[C@H]2CC[C@H](Nc3ncc(C4CC4)cn3)C2)nc1 [Example 128] | – | 7900 nM | 0.5 h | Area under the curve AUC0-∞ [2]: 10873 ng·h/mL; Half-life t1/2 [2]: 4.0 h; Mean residence time MRT [2]: 3.7 h; Plasma concentration Cmax [2]: 4307 ng/mL |
| O=C1c2ncccc2CN1c1ccc(N[C@H]2CC[C@H](Nc3ncc(C4CC4)nn3)C2)nc1 [Example 126, 6-(6-(((1S,3S)-3-((6-cyclopropyl-1,2,4-triazin-3-yl)amino)cyclopentyl)amino)pyridin-3-yl)-5,6-dihydro-7H-pyrrolo[3,4-b]pyridin-7-one] | 1.2 nM | 500 nM | – | – |
| O=C1c2cccnc2CN1c1ccc(N[C@H]2CC[C@H](Nc3ncc(OCC(F)(F)F)cn3)C2)nc1 [Example 124] | 0.8 nM | 16800 nM | – | – |
| O=C1c2ncncc2CN1c1ccc(N[C@H]2CC[C@H](Nc3ncc(OC(F)F)cn3)C2)nc1 [Example 132, 6-(6-(((1S,3S)-3-((5-(difluoromethoxy)pyrimidin-2-yl)amino)cyclopentyl)amino)pyridin-3-yl)-5,6-dihydro-7H-pyrrolo[3,4-d]pyrimidin-7-one] | 1.1 nM | 12000 nM | – | – |
| O=C1c2ncccc2CN1c1ccc(N[C@H]2CC[C@H](Nc3ncc(OCC(F)(F)F)cn3)C2)nc1 [Example 125] | – | 17300 nM | 1 h | Area under the curve AUC0-∞ [2]: 24298 ng·h/mL; Half-life t1/2 [2]: 7.7 h; Mean residence time MRT [2]: 4.0 h; Plasma concentration Cmax [2]: 8545 ng/mL |
| O=c1ccccn1-c1ccc(N[C@H]2CC[C@H](Nc3nc4cc(C(F)(F)F)ccn4n3)C2)nc1 [Example 113, 6′-(((1S,3S)-3-((7-(trifluoromethyl)-[1,2,4]triazolo[1,5-a]pyridin-2-yl)amino)cyclopentyl)amino)-2H-[1,3′-bipyridinyl]-2-one] | 4.2 nM | 14000 nM | – | – |
| Cc1cc2c(cn1)CN(c1ccc(N[C@H]3CC[C@H](Nc4ncc(OC(F)F)cn4)C3)nc1)C2=O [Example 116, 2-(6-(((1S,3S)-3-((5-(difluoromethoxy)pyrimidin-2-yl)amino)cyclopentyl)amino)-3-yl)-6-methyl-2,3-dihydro-1H-pyrrolo[3,4-c]pyridin-1-one] | – | 2600 nM | 1 h | AUC(0-inf) [2]: 42500 ng·h/mL; half-life [2]: 5.1 h; MRT [2]: 7.2 h; Cmax [2]: 4060 ng/mL |

The next lines start with results.

| Kd (PCSK9 protein) | IC50 [1] | Time to peak tmax [2] | SMILES | also measured |
| --- | --- | --- | --- | --- |
| 3 nM | 22800 nM | – | O=C1c2cccc(C(F)(F)F)c2CN1c1ccc(N[C@H]2CC[C@H](Nc3nc4cc(F)ccn4n3)C2)nc1 [Example 162] | – |
| 2.8 nM | 19900 nM | 0.5 h | O=C1c2nc(C(F)(F)F)ccc2CN1c1ccc(N[C@H]2CC[C@H](Nc3nc4cc(F)ccn4n3)C2)nc1 [Example 155, 6-(6-(((1S,3S)-3-((7-fluoro-[1,2,4]triazolo[1,5-a]pyridin-2-yl)amino)cyclopentyl)amino)pyridin-3-yl)-2-(trifluoromethyl)-5,6-dihydro-7H-pyrrolo[3,4-b]pyridin-7-one] | AUC(0-inf) [2]: 25500 ng·h/mL; half-life [2]: 5.9 h; MRT [2]: 1.9 h; Cmax [2]: 10000 ng/mL |
| 4.9 nM | 22300 nM | – | O=c1ccccn1-c1ccc(N[C@H]2CC[C@H](Nc3nc4cc(C5CC5)ccn4n3)C2)nc1 [Example 135, 6′-(((1S,3S)-3-((7-cyclopropyl-[1,2,4]triazolo[1,5-a]pyridin-2-yl)amino)cyclopentyl)amino)-2H-[1,3′-bipyridinyl]-2-one] | – |
| – | 1100 nM | 0.25 h | O=C1c2cccnc2CN1c1ccc(N[C@H]2CC[C@H](Nc3ncc(C(F)(F)F)cn3)C2)nc1 [Example 133, 6-(6-(((1S,3S)-3-((5-(trifluoromethyl)pyrimidin-2-yl)amino)cyclopentyl)amino)-3-yl)-6,7-dihydro-5H-pyrrolo[3,4-b]pyridin-5-one] | AUC(0-inf) [2]: 36800 ng·h/mL; half-life [2]: 6.7 h; MRT [2]: 6.2 h; Cmax [2]: 7530 ng/mL |
| – | 26400 nM | 2 h | O=C1c2ncc(F)cc2CN1c1ccc(N[C@H]2CC[C@H](Nc3ncc(C(F)(F)F)nn3)C2)nc1 [Example 153, 3-Fluoro-6-(6-(((1S,3S)-3-((6-(trifluoromethyl)-1,2,4-triazin-3-yl)amino)cyclopentyl)amino)pyridin-3-yl)-5,6-dihydro-7H-pyrrolo[3,4-b]pyridin-7-one] | AUC(0-inf) [2]: 34600 ng·h/mL; half-life [2]: 2.9 h; MRT [2]: 4.4 h; Cmax [2]: 6310 ng/mL |
| 2.5 nM | – | – | CC1(C)c2cccnc2C(=O)N1c1ccc(N[C@H]2CC[C@H](Nc3ncc(C(F)(F)F)nn3)C2)nc1 [Example 146, 5,5-Dimethyl-6-(6-(((1S,3S)-3-((6-(trifluoromethyl)-1,2,4-triazin-3-yl)amino)cyclopentyl)amino)pyridin-3-yl)-5,6-dihydro-7H-pyrrolo[3,4-b]pyridin-7-one] | – |
| 2.6 nM | 17600 nM | – | O=C1c2c(cccc2C(F)(F)F)CN1c1ccc(N[C@H]2CC[C@H](Nc3nc4cc(F)ccn4n3)C2)nc1 [Example 161] | – |
| – | 2400 nM | 2 h | O=C1c2ncccc2CN1c1ccc(N[C@H]2CC[C@H](Nc3ncc(OC(F)(F)F)cn3)C2)nc1 [Example 142, 6-(6-(((1S,3S)-3-((5-(trifluoromethoxy)pyrimidin-2-yl)amino)cyclopentyl)amino)pyridin-3-yl)-5,6-dihydro-7H-pyrrolo[3,4-b]pyridin-7-one] | AUC(0-inf) [2]: 50800 ng·h/mL; half-life [2]: 6.5 h; MRT [2]: 8.1 h; Cmax [2]: 5930 ng/mL |
